Earlier results in US20090270472A1, “METHOD TO USE OXYMETAZOLINE TO INTERRUPT THE DEVELOPMENT OF THE COMMON COLD SYNDROME” (priority 2008, published 2009).

Details: subjects with acute rhinitis; six (6) days with saline placebo

## Cc1cc(C(C)(C)C)c(O)c(C)c1CC1=NCCN1 [oxymetazoline]
  duration of rhinitis: 4 days
